Assays:
gastric acid secretion = assay: Inhibitory effect on gastric acid secretion by Schild method (pentagastrin-stimulated); assay type: in vivo, rat (male Sprague Dawley); details: intraduodenal, rat, read-out: Inhibitory Effect on acid secretion (Schild method), percent inhibition
From the text: Evaluation of Inhibitory Effect on Gastric Acid Secretion by Schild Method
Twenty four hour starved (ad libitum for water) male Sprague Dawley rats (8-week-old) were anesthetized with urethane (1.5 g/kg S.C.) and kept breathing with esophagus cannulas. After laparotomy, esophagus cannulas were inserted orally up to proventriculus and ligated around gastric cardiac. Perfusion cannulas were inserted from duodenum into stomach and ligated around pylorus. Another cannulas were placed into duodenum and ligated for administration of drug. After sutra of abdomen, stomach was perfused via the esophagus cannulas with physiological saline (37° C.) while collecting perfusate for a 15 min interval. The perfusate was subjected to titration with 0.001 N NaOH solution to determine the acidity. When the basal acid secretion became stable, pentagastrin ([…]) was administered in a sustained manner via common carotid vein for about 90 min until the acid secretion reached approximately the highest level, when a test compound (0.5% M.C. suspension) was administered into duodenum through cannulas. The perfusate was collected for a 15 min interval to monitor the acid secretion for 90 min. The percent inhibition was calculated as follows:
Percent inhibition (%)=100×(A-B)/(C-B)
A: the minimum value of total acidity observed after the administration of a test compound;
B: the total acidity obtained immediately before the administration of pentagastrin; and
C: the total acidity obtained immediately before the administration of a test compound.

CCK-A receptor = molecular target: T1, CCK-A receptor (Mus musculus, UniProt O08786); assay: CCK-A receptor antagonism, displacement of [3H]CCK-8, pancreas crude membrane; assay type: binding, mouse (male ddY); details: mouse pancreas membrane, [3H]CCK-8 1 nM, 90 min, 25 °C; read-out: Receptor CCK-A (IC50)
T1 construct: crude membrane specimen from mouse pancreas; from tissue; host or cells: pancreas of male ddY mice, crude membranes
T1 sequence (O08786 1-436): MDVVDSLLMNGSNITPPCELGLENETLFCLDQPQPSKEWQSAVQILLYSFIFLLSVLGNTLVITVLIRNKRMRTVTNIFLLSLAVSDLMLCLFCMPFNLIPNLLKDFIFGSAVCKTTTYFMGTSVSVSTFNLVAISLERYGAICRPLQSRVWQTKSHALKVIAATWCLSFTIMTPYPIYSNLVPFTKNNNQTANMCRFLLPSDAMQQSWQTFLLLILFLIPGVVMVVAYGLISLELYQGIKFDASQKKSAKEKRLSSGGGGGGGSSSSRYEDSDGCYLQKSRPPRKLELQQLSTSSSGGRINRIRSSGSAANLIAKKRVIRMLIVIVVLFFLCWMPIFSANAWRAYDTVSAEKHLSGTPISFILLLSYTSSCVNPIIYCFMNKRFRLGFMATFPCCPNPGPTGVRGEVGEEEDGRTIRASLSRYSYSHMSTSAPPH
Description: (§1) Male Hartley guinea pig (450-600 g) or male ddY mouse (24-30 g) were used.
(§2) (2) CCK-A Receptor Antagonism and CCK-B Receptor Antagonism
(§3) Preparation of CCK receptor preparations
(§4) Male ddY mice (24 to 30 g) were killed by decapitation and cerebral cortex (CCK-B) and pancreas (CCK-A) were extracted immediately. Each of cerebral cortex and pancreas was mixed with 50 mM Tris-HCl buffer (pH 7.4) and homogenized with a teflon-glass homogenizer and polytron homogenizer to obtain crude membrane specimens.
(§5) Preparation of test compounds and procedures of displacing assay A 1M solution of a compound to be tested in DMSO is prepared and diluted with 50% DMSO to obtain a ten-fold dilution series.
(§6) The reaction is initiated by the addition of crude membrane specimen to solutions of different concentration each containing [^3 H]CCk-8 (final concentration, 1 nM). The mixture is incubated for 90 min at 25° C., filtered through glass filter with aspiration and washed with a cooled 50 mM Tris buffer. After the addition of Aquazol-2 cocktail the radioactivity is counted. The same procedure was repeated using 50% DMSO solution or Ceruletide (final concentration, 1 μM) instead of a solution of test compound so as to obtain the control value regarding total binding or the value regarding non-specific binding, respectively. […]
(§7) specific binding of control=total binding (cpm)-non-specific binding (cpm); and specific binding of test compound=[…]-non-specific binding (cpm).

CCK-B receptor = molecular target: T2, CCK-B receptor (Mus musculus, UniProt P56481); assay: CCK-B receptor antagonism, displacement of [3H]CCK-8, cerebral cortex crude membrane; assay type: binding, mouse (male ddY); details: mouse cerebral cortex membrane, [3H]CCK-8 1 nM, 90 min, 25 °C; read-out: Receptor CCK-B (IC50)
T2 construct: crude membrane specimen from mouse cerebral cortex; from tissue; host or cells: cerebral cortex of male ddY mice, crude membranes
T2 sequence (P56481 1-453): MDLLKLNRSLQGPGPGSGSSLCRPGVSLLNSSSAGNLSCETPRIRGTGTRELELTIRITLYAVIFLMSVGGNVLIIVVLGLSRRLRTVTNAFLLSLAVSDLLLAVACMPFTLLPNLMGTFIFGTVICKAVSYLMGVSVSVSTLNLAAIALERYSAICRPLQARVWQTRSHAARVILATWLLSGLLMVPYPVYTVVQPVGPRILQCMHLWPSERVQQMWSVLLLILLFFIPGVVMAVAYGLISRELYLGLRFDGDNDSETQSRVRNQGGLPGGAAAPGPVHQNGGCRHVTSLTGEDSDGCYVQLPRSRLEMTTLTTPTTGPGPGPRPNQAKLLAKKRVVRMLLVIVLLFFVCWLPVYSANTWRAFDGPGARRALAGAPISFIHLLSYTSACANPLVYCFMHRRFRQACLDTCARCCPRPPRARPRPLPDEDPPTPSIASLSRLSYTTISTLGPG
Description: as §1, §2, §3, §4, §5, §6, §7

gastrin receptor = molecular target: T3, gastrin receptor (Cavia porcellus, UniProt H0VZC5); assay: Gastrin receptor antagonism, displacement of 125I-labeled gastrin, gastric (fundic) gland cells; assay type: binding, guinea pig (male Hartley); details: guinea pig gastric glands, 125I-gastrin 0.2 nM, 30 min, 25 °C; read-out: Receptor Gastrin (IC50)
T3 construct: stomach was extracted from each animal immediately, from which gastric glands were prepared; from tissue; host or cells: gastric (fundic) glands of male Hartley guinea pigs
T3 sequence (H0VZC5 1-426): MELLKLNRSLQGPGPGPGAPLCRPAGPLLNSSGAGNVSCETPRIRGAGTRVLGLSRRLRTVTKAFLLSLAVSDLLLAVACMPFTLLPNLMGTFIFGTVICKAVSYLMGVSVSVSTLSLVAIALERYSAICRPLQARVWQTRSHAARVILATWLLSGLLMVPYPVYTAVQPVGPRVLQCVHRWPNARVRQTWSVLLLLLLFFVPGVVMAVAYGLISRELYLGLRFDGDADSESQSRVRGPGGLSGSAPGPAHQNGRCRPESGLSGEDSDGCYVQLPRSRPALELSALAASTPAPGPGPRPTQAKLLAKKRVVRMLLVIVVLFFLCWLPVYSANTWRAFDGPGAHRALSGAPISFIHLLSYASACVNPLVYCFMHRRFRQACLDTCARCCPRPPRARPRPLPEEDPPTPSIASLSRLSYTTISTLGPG
Description: as §1
(1) Gastrin Receptor Antagonism
Preparation of gastric glands:
Male Hartley guinea pigs (450-600 g) were killed by bleeding and stomach was extracted from each animal immediately, from which gastric glands were prepared.
Preparation of test compounds and procedures of displacing assay
A 1M solution of a compound to be tested in DMSO is prepared and diluted with 50% DMSO to obtain a ten-fold dilution series.
The mixture is incubated for 30 min at 25° C., centrifuged at 2000 rpm for 5 min and the supernatant is removed by aspiration. To the pellet is added ice-cooled incubation buffer and mixed gently, followed by an immediate centrifugation and removal of the supernatant by aspiration. The radioactivity is counted on gamma counter. The same procedure was repeated using 50% DMSO solution or human gastrin I (final concentration, 2 μM) instead of a solution of test compound so as to obtain the control value regarding total binding or the value regarding non-specific binding, respectively. […]
as §7

## Cc1cccc(NC(=O)NC2C(=O)N(CC(=O)N3CCCC3)c3ccccc3N(CC(=O)N3CCCC3)C2=O)c1 [Compound 8a]
Gastric acid secretion
  inhibition in vivo at 0.3 mg/kg: 49%
CCK-A receptor
  IC50: 0.86 µM
CCK-B receptor
  IC50: 0.054 µM
Gastrin receptor
  IC50: 0.007 µM

## Cc1cccc(NC(=O)NC2C(=O)N(CC(=O)c3ccccc3C)c3ccccc3N(CC(=O)c3ccccc3C)C2=O)c1 [Compound 8d, 1,5-Bis-(o-methylphenacyl)-3-{N'-(m-tolyl)-ureido}-1H-1,5-benzodiazepine-2,4(3H,5H)-dione]
Gastric acid secretion
  inhibition in vivo at 0.3 mg/kg: 66%
CCK-A receptor
  IC50: 0.029 µM
CCK-B receptor
  IC50: 0.011 µM
Gastrin receptor
  IC50: 0.004 µM

## Cc1cccc(NC(=O)NC2C(=O)N(CC(=O)c3ccco3)c3ccccc3N(CC(=O)c3ccco3)C2=O)c1 [Compound 8f, 1,5-Bis-(2-furylcarbonylmethyl)-3-{N'-(m-tolyl)-ureido}-1H-1,5-benzodiazepine-2,4(3H,5H)-dione]
Gastric acid secretion
  inhibition in vivo at 0.3 mg/kg: 73%
CCK-A receptor
  IC50: 0.12 µM
CCK-B receptor
  IC50: 0.017 µM
Gastrin receptor
  IC50: 0.003 µM

## Cc1cccc(NC(=O)NC2C(=O)N(CC(=O)C3CC3)c3ccccc3N(CC(=O)C3CC3)C2=O)c1 [Compound 8h, 1,5-Bis-(cyclopropylcarbonylmethyl)-3-(N'-(m-tolyl)ureido)-1H-1,5-benzodiazepine-2,4(3H,5H)-dione]
Gastric acid secretion
  inhibition in vivo at 0.3 mg/kg: 81%
CCK-A receptor
  IC50: 0.38 µM
CCK-B receptor
  IC50: 0.018 µM
Gastrin receptor
  IC50: 0.005 µM

## Cc1cccc(NC(=O)NC2C(=O)N(CC3CC3)c3ccccc3N(CC3CC3)C2=O)c1 [Compound 8o, 1,5-Bis-(cyclopropylmethyl)-3-{N'-(m-tolyl)-ureido}-1H-1,5-benzodiazepine-2,4(3H,5H)-dione]
Gastric acid secretion
  inhibition in vivo at 0.3 mg/kg: 60%
CCK-A receptor
  IC50: 0.86 µM
CCK-B receptor
  IC50: 0.023 µM
Gastrin receptor
  IC50: 0.012 µM

## Cc1cccc(NC(=O)NC2C(=O)N(Cc3cccc(N)c3)c3ccccc3N(Cc3cccc(N)c3)C2=O)c1 [Compound 8r]
Gastric acid secretion
  inhibition in vivo at 0.3 mg/kg: 46%
CCK-A receptor
  IC50: 0.76 µM
CCK-B receptor
  IC50: 0.021 µM
Gastrin receptor
  IC50: 0.018 µM

## CCOC(=O)c1cccc(NC(=O)NC2C(=O)N(CC(=O)C3CC3)c3ccccc3N(CC(=O)C3CC3)C2=O)c1 [Compound 17-i]
Gastric acid secretion
  inhibition in vivo at 0.3 mg/kg: 44%
CCK-A receptor
  IC50: 1.35 µM
CCK-B receptor
  IC50: 0.14 µM
Gastrin receptor
  IC50: 0.007 µM

## O=C(Nc1cccc(C(=O)O)c1)NC1C(=O)N(CC(=O)C2CC2)c2ccccc2N(CC(=O)C2CC2)C1=O [Compound 17-ii]
Gastric acid secretion
  inhibition in vivo at 0.3 mg/kg: 72%
CCK-A receptor
  IC50: > 10 µM
CCK-B receptor
  IC50: 0.105 µM
Gastrin receptor
  IC50: 0.005 µM

## CC(C)S(=O)(=O)NC(=O)c1cccc(NC(=O)NC2C(=O)N(CC(=O)C3CC3)c3ccccc3N(CC(=O)C3CC3)C2=O)c1 [Compound 17-iii, 1,5-Bis-(cyclopropylcarbonylmethyl)-3-(N'-(m-(isopropylsulfonylaminocarbonyl)phenyl)ureido)-1H-1,5-benzodiazepine-2,4(3H,5H)-dione]
Gastric acid secretion
  inhibition in vivo at 0.3 mg/kg: 47%
CCK-A receptor
  IC50: 11.5 µM
CCK-B receptor
  IC50: 0.19 µM
Gastrin receptor
  IC50: 0.006 µM

## O=C(Nc1cccc(-c2nnn[nH]2)c1)NC1C(=O)N(CC(=O)C2CC2)c2ccccc2N(CC(=O)C2CC2)C1=O [Compound 17-iv, 1,5-Bis-(cyclopropylcarbonylmethyl)-3-(N'-(m-(tetrazoyl)phenyl)ureido)-1H-1,5-benzodiazepine-2,4(3H,5H)-dione]
Gastric acid secretion
  inhibition in vivo at 0.1 mg/kg: 44%
CCK-A receptor
  IC50: 2.9 µM
CCK-B receptor
  IC50: 0.008 µM
Gastrin receptor
  IC50: 0.002 µM

## O=C(O)CSc1cccc(NC(=O)NC2C(=O)N(CC(=O)C3CC3)c3ccccc3N(CC(=O)C3CC3)C2=O)c1 [Compound 17-ix, 1,5-Bis-(cyclopropylcarbonylmethyl)-3-(N'-(m-(carboxymethylthio)phenyl)ureido)-1H-l,5-benzodiazepine-2,4(3H,5H)-dione]
Gastric acid secretion
  inhibition in vivo at 0.1 mg/kg: 74%
CCK-A receptor
  IC50: 0.5 µM
CCK-B receptor
  IC50: 0.002 µM
Gastrin receptor
  IC50: 0.0006 µM

## CCOC(=O)COc1cccc(NC(=O)NC2C(=O)N(CC(=O)C3CC3)c3ccccc3N(CC(=O)C3CC3)C2=O)c1 [Compound 17-v, 1,5-Bis-(cyclopropylcarbonylmethyl)-3-(N'-(m-(carboethoxymethoxy)phenyl)ureido)-1H-1,5-benzodiazepine-2,4(3H,5H)-dione]
Gastric acid secretion
  inhibition in vivo at 0.3 mg/kg: 59%
CCK-A receptor
  IC50: 3.6 µM
CCK-B receptor
  IC50: 0.18 µM
Gastrin receptor
  IC50: 0.016 µM

## O=C(O)COc1cccc(NC(=O)NC2C(=O)N(CC(=O)C3CC3)c3ccccc3N(CC(=O)C3CC3)C2=O)c1 [Compound 17-vi, 1,5-Bis-(cyclopropylcarbonylmethyl)-3-(N'-(m-(carboxymethoxy)phenyl)ureido)-1H-1,5-benzodiazepine-2,4(3H,5H)-dione]
Gastric acid secretion
  inhibition in vivo at 0.3 mg/kg: 22%
CCK-A receptor
  IC50: 4.4 µM
CCK-B receptor
  IC50: 0.016 µM
Gastrin receptor
  IC50: 0.003 µM

## O=C(Nc1cccc(OCc2nnn[nH]2)c1)NC1C(=O)N(CC(=O)C2CC2)c2ccccc2N(CC(=O)C2CC2)C1=O [Compound 17-vii, 1,5-Bis-(cyclopropylcarbonylmethyl)-3-(N'-(m-(tetrazoylmethoxy)phenyl)ureido)-1H-1,5-benzodiazepine-2,4(3H,5H)-dione]
Gastric acid secretion
  inhibition in vivo at 0.3 mg/kg: 68%
CCK-A receptor
  IC50: 1.8 µM
CCK-B receptor
  IC50: 0.004 µM
Gastrin receptor
  IC50: 0.011 µM

Source: patent US5776929A, “Benzodiazepine derivative” (Shionogi & Co., Ltd., priority 1993, dated 1998)
